The values below come from US11898161B2, “Stem cell culture medium and method” (RIKEN, priority 2006, dated 2024).

Format in all cases: cell-based
In data set [1] the test system is human embryonic stem cells (KhES-1). Nature of the data set: Cloning efficiency (colony formation) of dissociated human ES cells at low density on MEF feeder layer. To be noted: for cloning efficiency compared to without the inhibitors: Fasudil/HA1077 10 μM, H-1152 200 nM, other kinase inhibitors at ranges of b100. The text has this:
The Human embryonic stem cells used for the experiments described herein were embryonic stem cells (KhES-1, KhES-2 and KhES-3) from human blastocysts established in the laboratory of Norio Nakatsuji, at the Institute for Frontier Medical Sciences, Kyoto University, which were distributed and used (mainly KhES-1) following the human embryonic stem cell guidelines of the Japanese government. In accordance with the method of the Nakatsuji laboratory (Suemori et al., Biochem Biophys Res Commun. 345, 926-32 (2006)), undifferentiated human embryonic stem cells were cultured on a plastic culture dish with mouse embryonic fibroblasts (inactivated with mitomycin, MEF) seeded as a feeder layer of cells. More specifically, the culture medium containing comprising KSR (Invitrogen/Gibco-BRL) at the final concentration of 20%, 1×NEAA (non-essential amino acids, Invitrogen/Gibco BRL), 2 mM L-giutaminic acid and 0.1 mM 2-mercaptoethanol in D-MEM F12 (Sigma D6421) was used, and the culturing was performed at 37° C., 5% CO2. Passaging was performed in every three or four days, and the embryonic stem cells were detached from the feeder layer using the dissociation liquid (containing 0.25% trypsin, 1 mg/mi collagenase IV solution, 1 mM CaCl2 in a phosphate buffered saline; all of which from Invitrogen/Gibco-BRL), followed by dissociated into small cell clumps (of about 50-100 cells) by pipetting, and then were seeded on the feeder layer which had been formed from seeding MEF on the day before.
The cell death inhibiting effect and the influence on cloning efficiency, of ROCK inhibitor, for the human embryonic stem cell culture after dissociation to single cells were examined as follows. […] The embryonic stem cell clumps ware dissociated to single cells by trypsin digestion (0.25% trypsin—EDTA, at 37° C. for 5 minutes), and seeded on a MEF feeder layer in 96 well culture plates at low density (500 cells/0.32 cm^2 in 0.15 ml of medium). The number of formed colonies was counted six days after culture in the maintenance culture medium. ROCK inhibitor Y-27632 was added at the concentration of 10 μM one hour prior to detaching the cells from the feeder layer, and the same amount was added to culture in the same amount after the detachment.
The effects of other ROCK inhibitors on the cloning efficiency of human embryonic stem cells in maintenance culture were evaluated using methods as described in example 1. The ROCK inhibitors, Fasudil/HA1077 (10 μM) and H-1152 (200 nM) were used. Also, inhibitors for other kinases were used for reference. The inhibitors for other kinases used were: cAMP-Rp (1-100 μM) and KT5720 (5-500 nM), which are protein kinase A inhibitors; bisindolylmaleimide (0.01-5 μM) and staurosporine (1-50 nM), which are protein kinase C inhibitors; PD98059 (0.5-50 μM), which is an MAPK inhibitor; LY294002 (1-50 μM), which is a PI3K inhibitor; and ML-7 (0.3-30 μM), which is an MLCK inhibitor.

The next data set relates to hES cells (KhES-3). To be noted: human, 3 months. As to the method:
FIGS. 4A-4L—Analysis of hES cells cultured in the presence of Y-27632 at low density. (FIGS. 4A-4C) Immunostaining of E-cadherin (FIG. 4A), Oct3/4 (FIG. 4B) and SSEA-4 (FIG. 4C) in Y-27632-treated hES cells (KhES-1) after extended passaging (30 times) at low density with Y-27632 treatment. Lower panels show DAPI staining (blue). (FIGS. 4D-4G) Histological analysis (hematoxylin-eosin staining, […] paraffin section) of teratoma tissues formed after subcapsular injection of hES cells (KhES-1) following extended passaging with Y-27632 into SCID mouse testes. (FIG. 4D) Cartilage, (FIG. 4E) neuroepithelium, (FIG. 4F) pigmented epithelium, and (g) gut-like mucosa with columnar epithelium. (FIG. 4H, FIG. 4I) After extended passaging involving low-density culture with Y-27632 treatment, efficient colony formation from dissociated hES cells (32.5±11%; KhES-1) remained dependent on Y-27632 (FIG. 4I) and few colonies were seen without it (FIG. 4H). (FIG. 4J) Dose-response relationship of two selective ROCK inhibitors (Y-27632, Fasudil; the cloning efficiency was 1.3±0.8% and 25.1±1.6% without and with 10 μM Fasudil; P<0.001, n=3) and two unrelated kinase inhibitors (cAMP-Rp, LY294002) on colony formation (KhES-1). Y-axis, ratios of promoting activity of colony formation to that with 10 μM Y-27632. […]

Data set [2] concerns human embryonic stem cells. Description: Cloning efficiency at clonal density (one cell per well, 96 well plates) on MEF. The note with it: 10 μM, under 1% without inhibitor. As to the method: The cell death inhibiting effect and the influence on cloning efficiency, of ROCK inhibitor, for the human embryonic stem cell culture after dissociation to single cells were examined as follows. […] The number of formed colonies was counted six days after culture in the maintenance culture medium. ROCK inhibitor Y-27632 was added at the concentration of 10 μM one hour prior to detaching the cells from the feeder layer, and the same amount was added to culture in the same amount after the detachment. Also, to evaluate whether promotion of cloning would be caused by the autocrine factor of human embryonic stem cell, a similar experiment was performed in 96 well culture plates at clonal density (one cell per well) of human embryonic stem cells, and the cloning efficiency was determined.

Data set [3] concerns human ES cells (KhES-1). Description: Number of surviving cells in suspension culture (SFEB) of dissociated human ES cells. The note with it: 8% in non-supplemented group. On the procedure:
(§1) Human ES cells subjected to maintenance culture were detached as small cell clumps (aggregates) from feeder cells in the same manner as in Example 1, and after removal of residual feeder cells, they were dissociated into single cells by trypsin digestion. After centrifugation, 2×10^5 cells were dissociated in serum-free culture medium for post differentiation induction (Watanabe et al., Nature Neuroscience 8, 288-296, 2005; supplemented with G-MEM, KSR and 2-mercaptoethanol, KSR was added at a concentration of 20%). The singly-dissociated human ES cells (1.0×10^5 cells/ml) were suspension-cultured in a non-cell adhesive 35 mm culture plate to form aggregates, and were cultured in the same culture medium for 2-6 days (SFEB method; See the above reference of Watanabe et al.). After 2-day culture, the percentage of apoptic cells was measured by TUNEL method (MEBSTAIN Apoptosis kit Direct, MBL). Treatment with ROCK inhibitor, Y-27632, was initiated at 1 hour before cell separation in the same manner as in Example 1, and the inhibitor was added to maintenance culture medium also after dissociation. For comparison, caspase inhibitor (ZVAD; 10 μM) and BDNF/NT-3/NT-4 (mixture of 50 ng/ml each), whose apoptosis suppressive effect has been reported, were used to conduct the experiment. In addition, the number of surviving cells on day 6 was counted in each case.

Data set [4] has as its system human ES cells (KhES-1). Nature of the data set: Feeder-free culture of singly-dissociated human ES cells, colony formation. The note with it: 10 μM Y-27632, feeder-free, MEF-conditioned medium, 500 cells/well; less than 0.2% untreated. As to the method: Specifically, according to the above literature, MEF cells cultured to confluency were lysed on a culture dish by deoxycholate method to leave only extracellular matrix. Singly-dissociated human ES cells (500 cells/well of a 96-well plate) were seeded onto them under Y-2763 treatment (10 μM or 0 μM) by the same method as for the routine culture on MEF cells (abovementioned Example). Conditioned medium, in which human ES cell maintenance medium and MEF were preliminarily cultured for one day, was used as a culture medium. The number of human ES cell colonies formed 5 days later were counted.

The test system of data set [5] is human ES cells. Nature of the data set: Differentiation induction into neuronal and brain precursor cells by SFEB method from singly-dissociated human ES cells. The text has this: Human ES cells subjected to maintenance culture were detached from feeder cells as small cell clumps in the same manner as in Example 4, and after removal of residual feeder cells, they were dissociated into single cells by trypsin digestion. After centrifugation, cells were dissociated into culture medium for differentiation induction at 2×10^5 cells/mL, and were suspension-cultured using a non-cell adhesive culture plate to conduct serum-free culture (SFEB method) of suspended aggregates. In addition, Nodal inhibitor LeftyA (1 μg/ml, R&D), Wnt inhibitor Dkk1 (500 ng/ml, R&D) and BMP inhibitor BMPR1A-Fc (1.5 μg/ml, R&D) were added for the first 10 days after the start of culture for differentiation induction. After serum-free suspension culture for 16-35 days, the cell aggregates were fixed and immunostained by fluorescence antibody method. Treatment with the ROCK inhibitor, Y-27632, was initiated at 1 hour before cell separation in the same manner as in Example 1, and the inhibitor was added to maintenance culture medium for the first six days also after dissociation. For the differentiation into brain precursor cells, on day 25 of SFEB culture, floating cell aggregates were transferred into a poly-D-lysine/laminin/fibronectin-coated culture slide, and were cultured in an adhesion state for additional 10 days. In the adhesion culture, Neurobasal medium, supplemented with B27 (vitamin A-free) and 2 mM L-glutamine (both supplied by Gibco-BRL), was used as a culture medium.

Data set [6] deals with human ES cells (KhES-1). Nature of the data set: TUNEL apoptosis assay in suspension culture of dissociated human ES cells. To be noted: after 2-day suspension culture; 80% in non-supplemented control. On the procedure:
as §1

Data set [7] concerns human ES cells. Description: Maintenance culture of singly-dissociated human ES cells on MEF with different time courses of treatment (survival, growth, apoptosis). To be noted: for population doubling time: days 2 to 6 after start of dissociation culture. On the procedure: As for the maintenance culture of singly-dissociated human ES cells, in order to examine whether Y-27632 promotes cell survival at the early phase of dissociation culture, Y-27632 treatment time was divided into the following three groups to compare cell survival-promoting effects in maintenance culture. Group 1: Y-27632 treatment (10 μM, same below) was conducted as 1 hour-pretreatment and only for the first 12 hours of culture after dissociation in the process of dissociation culture of human ES cells. Group 2: Y-27632 treatment was conducted as 1 hour-pretreatment and for the entire culture period after dissociation in the process of dissociation culture of human ES cells. Group 3: No Y-27632 treatment was conducted. In these groups, surviving cells on day 3 per seeded cells (5×10^4 cells per one well of a 6-well plate) were counted in maintenance culture system on MEF layer. In the same experiment as in the above Example 7, the effect of Y-27632 on the cell growth for 6 days after the start of dissociation culture was examined in Groups 1 and 2 by extending the culture period to 6 days.

Several values for one entry are separate records, joined by “and”; a condition that tells them apart may be missing. Equal values may be shown once. Residues, ends and D or L forms follow the SMILES beside them. *: point of attachment. Cbz = O=C(OCc1ccccc1)*; CH2F = FC*

As to `O=S(=O)(c1cccc2cnccc12)N1CCCNCC1` [Fasudil], the cloning efficiency in data set [1] (10 μM Fasudil, KhES-1, 1.3±0.8% without, P<0.001, n=3) amounted to 25.1±1.6%. Also, the “cloning efficiency compared to without the inhibitors” value in data set [1] is “significant enhanced cloning efficiencies”.
Consider `Cc1cncc2cccc(S(=O)(=O)N3CCCNC[C@@H]3C)c12` [H-1152], for which the “cloning efficiency compared to without the inhibitors” value in data set [1] is given as “significant enhanced cloning efficiencies”.
As to `C[C@@H](N)[C@H]1CC[C@H](C(=O)Nc2ccncc2)CC1` [Y-27632], in the data set with hES cells (KhES-3), the normal karyotype is on record as 100%. Further, the cloning efficiency in data set [2] worked out at 25%. In addition, the “surviving cells on day 6 (of plated cells)” value in the data set with human ES cells (KhES-1) [3] was determined as 70%. The “cloning efficiency per seeded human ES cell, feeder-free” value in the data set on human ES cells (KhES-1) [4] was 10.2% and 10.2±1.2%. Also, the “Oct3/4 positive cells (undifferentiated-state ES cell marker)” value in the data set with human ES cells [5] (day 24 of differentiation culture) is “less than 10%”. Also, the Pax6-positive cells entry in the data set on human ES cells [5] (day 24 of differentiation culture, Y-27632 first six days, with LeftyA, Dkk1, BMPR1A-Fc) was “about 80%”. Besides, in the data set on human ES cells [5] (day 35 of differentiation culture), the “cell aggregates with many Bf1 positive cells (brain precursor marker)” value is “about 60%”. In addition, in the data set on human ES cells (KhES-1) [6], the “TUNEL-positive (apoptotic) cells” value was determined as 9%. Moreover, the “cloning efficiency (ratio of formed colonies to initially seeded human embryonic stem cells)” value in data set [1] (10 μM Y-27632, 500 cells/well on MEF, six days culture, 1% without inhibitor) was determined as 27%. In addition, the “colony formation from dissociated hES cells after extended passaging” value in data set [1] (KhES-1 after extended passaging (low-density culture with Y-27632 treatment), few colonies without it) was determined as 32.5±11%. The “surviving cells on day 3 per seeded cells” value in the data set on human ES cells [7] (Group 1: 10 μM, 1 hour pretreatment and first 12 hours after dissociation only) is given as 270%; in the data set on human ES cells [7] (Group 2: 10 μM, 1 hour pretreatment and entire culture period), 290%. The “number of cells on day 6 relative to initially seeded cells” value worked out at 670% in the data set with human ES cells [7] (Group 1: first 12 hours only) and 860% in the data set on human ES cells [7] (Group 2: entire culture period). Also, the population doubling time in the data set on human ES cells [7] (Group 1) turned out to be 49.0 h; in the data set with human ES cells [7] (Group 2), 41.5 h. Also, in the data set with human ES cells [7] (both Groups 1 and 2, days 3 and 5), the “percentage of apoptosis (active Caspase 3-positive cells)” value was “less than 1%”.
For `COC(=O)C[C@H](NC(=O)[C@H](C)NC(=O)[C@@H](NC(=O)OCc1ccccc1)C(C)C)C(=O)CF` [ZVAD] (Cbz-Val-Ala-Asp(OMe)-CH2F), the “TUNEL-positive (apoptotic) cells” value with human ES cells (KhES-1) [6] stood at 72%.
